Measurements reported in US4342762A, “Basic ethers and pharmaceutical compositions containing the same” (Egyt Gyogyszervegyeszeti Gyar, priority 1979, dated 1982).

How the values were obtained:
white mice [1] = experiment: inhibition of motility, Dews apparatus (Borsy); format: in vivo; details: for ED50: Mus musculus, oral pretreatment 30 minutes, observation 30 minutes; for Inhibition of motility Th.I.: therapeutic index
Experimental: (§1) The effect on the inhibition of the oriental activity (inhibition of the motility) was investigated on white mice in a Dews apparatus applied with 8 canals by the method of Borsy [Borsy, J., Csanyi, E., Lazar, I., Arc. Int. Pharmacodyn. 124, 1-2 (1960)]. After an oral pretreatment of 30 minutes the number of light-interruptions due to the movements of groups consisting of 3-3 mice was registered. The observation lasted for 30 minutes. The effect of the compounds exerted on the duration of hexobarbital-narcosis was tested by the method of Kaergaard [Kaergaard, N. C., Magnussen, M. P., Kampmann, E., Frey, H. H., Arc. Int. Pharmacodyn. 2, 170; (1967)]. Groups of animals consisting of 6-6 mice were treated.

white mice [2] = experiment: inhibition of nicotine-lethality (Stone); format: in vivo; details: for ED50: Mus musculus, oral, 1 hour before 1.4 mg/kg nicotine
Experimental: The inhibition of nicotine-lethality was determined on white mice by the method of Stone [Stone, C. A., Mecklenburg, K. L., Torchiana, M. L., Arch. Int. Pharmacodyn.

[3] = acute oral toxicity, graphic method of Litchfield-Wilcoxon, 4 days observation; details: mouse, in vivo
Experimental: The analgesic effect of the new compounds according to the invention was determined by the method of Wirth et al. (Wirth, W., Gosswald, R., Horlein. K., Risse, Kl. H., Kreiskott, H.: Arch. Int. Pharmacodyn. 115, 1; (1958)). 0.4 ml of 0.5% acetic acid was administered i.p. to white mice, and the characteristic "writhing" reactions were counted after 5 minutes. […] The results are given in Table I. The toxicity data determined on white mice of both sexes weighing 18-24 g belonging to the strain CFLP are also given. Administration was effected with an oral dose of 20 ml/kg. After treatment the animals were kept under observation for 4 days. The toxicity data (LD50 mg/kg) were determined by the graphic method of Litchfield-Wilcoxon [Litchfield, J.T., Wilcoxon, E. W., J Pharmacol. Exp. Therap. 96, 99; (1949)].

mice = experiment: potentiating of hexobarbital-narcosis (Kaergaard); format: in vivo; details: for ED50: Mus musculus, iv, 40 mg/kg hexobarbital i.v., positive: sleeping period at least 2.5 times control; for Potentiating of narcosis Th.I.: therapeutic index
Experimental: as §1

white mice [4] = experiment: inhibition of maximal electroshock (MES) (Swinyard et al.); format: in vivo; details: for ED50: Mus musculus, oral, 1 hour before electroshock 50 Hz, 45 mA, 0.4 sec, total inhibition of tonic extensor convulsion; for Inhibition of MES Th. I.: therapeutic index
Experimental: (§2) The antiepileptic effect was investigated on white mice, after oral administration. The inhibition of maximal electroshock (MES) was determined by the method of Swinyard et al. [Swinyard et al. J. Pharmacol. Exp. Ther. 106, 319-330 (1952)]. White mice weighing 20-25 g were subjected to electric shock through corneal electrodes (Parameters: 50 Hz, 45 mA, 0.4 sec.). The total inhibition of the tonic extensor convulsion was considered as criterion of the anti-convulsive effect. The test-substance had been orally administered one hour before the electroshock. The inhibition of pentetrazole convulsion was determined on white mice by the modified method of Banziger and Hane [Banziger, R., Hane, L.D. Arch. Int. Pharmacodyn. 167, 245-249; (1967)]. I." stands for "therapeutic index."

white mice [5] = experiment: analgesic effect, inhibition of acetic acid "writhing" reactions (Wirth et al.); format: in vivo; details: for ED50: Mus musculus, read-out: Analgesic effect ED50; for Analgesic effect Therap.index: therapeutic index
Experimental: The analgesic effect of the new compounds according to the invention was determined by the method of Wirth et al. (Wirth, W., Gosswald, R., Horlein. K., Risse, Kl. H., Kreiskott, H.: Arch. Int. Pharmacodyn. 115, 1; (1958)). 0.4 ml of 0.5% acetic acid was administered i.p. to white mice, and the characteristic "writhing" reactions were counted after 5 minutes. The compounds to be tested had been orally administered an hour before the administration of the acetic acid. The activity is expressed as a percentage of the inhibition referred to the data observed on the control group. The results are given in Table I. The toxicity data determined on white mice of both sexes weighing 18-24 g belonging to the strain CFLP are also given. Administration was effected with an oral dose of 20 ml/kg. After treatment the animals were kept under observation for 4 days. The toxicity data (LD50 mg/kg) were determined by the graphic method of Litchfield-Wilcoxon [Litchfield, J.T., Wilcoxon, E. W., J Pharmacol. Exp. Therap. 96, 99; (1949)].

white mice [6] = experiment: inhibition of pentetrazole convulsion (modified Banziger and Hane); format: in vivo; details: for ED50: Mus musculus, oral; for Inhibition of pentetrazole convulsion Th. I.: therapeutic index
Experimental: as §2

[7] = oral, 20 ml/kg, both sexes 18-24 g, 4 days observation
[8] = oral, 1 hour before i.p. 0.4 ml 0.5% acetic acid

Compound	ED50 (white mice [1])	Inhibition of motility Th.I. (white mice [1])	ED50 (white mice [2])	Inhibition of nicotine-lethality Therapeutic index (white mice [2])	LD50 at 96 h [3, 7]	ED50 (mice)	Potentiating of narcosis Th.I. (mice)	ED50 (white mice [4])	Inhibition of MES Th. I. (white mice [4])	ED50 (white mice [5]; po)	Analgesic effect Therap.index (white mice [5])	ED50 (white mice [6])	Inhibition of pentetrazole convulsion Th. I. (white mice [6])	ED50 (white mice [5]; [8])	LD50 at 96 h ([3]; po)
CN(C)CCCOC1(Cc2ccccc2)CC2CCC1(C)C2(C)C (racemic) [Example 1, (±)-2-benzyl-2-(3'-dimethylaminopropoxy)-1,7,7-trimethyl-bicyclo(2,2,1)heptane]	110 mg/kg	14.5	38 mg/kg	42.1	1600 mg/kg	90 mg/kg	17.7	130 mg/kg	12.3	120 mg/kg	13.3	–	–	–	–
CC(COC1(Cc2ccccc2)CC2CCC1(C)C2(C)C)CN(C)C (racemic) [Example 2, (±)-2-benzyl-2-(3'-dimethylamino-2'-methylpropoxy)-1,7,7-trimethyl-bicyclo(2,2,1) heptane]	–	–	20 mg/kg	85,0	1700 mg/kg	15 mg/kg	113.3	120 mg/kg	14.2	85 mg/kg	20.0	88 mg/kg	19.3	–	–
CC(C)N(CCCOC1(Cc2ccccc2)CC2CCC1(C)C2(C)C)C(C)C (racemic) [Example 5, (±)-2-benzyl-2-(3'-diisopropylaminopropoxy)-1,7,7-trimethyl-bicyclo(2,2,1)heptane]	190 mg/kg	10.5	–	–	2000 mg/kg	120 mg/kg	16.7	380 mg/kg	5.3	–	20.0	140 mg/kg	14.3	100 mg/kg	–
CN(C)CCOC1(c2ccccc2)CC2CCC1(C)C2(C)C (racemic) [Example 15, (±)-2-(2'-dimethylaminoethoxy)-2-phenyl-1,7,7-trimethyl-bicyclo(2,2,1)heptane]	–	–	30 mg/kg	30.0	900 mg/kg	40 mg/kg	22.5	–	–	23 mg/kg	39.0	–	–	–	–
CCN(CC)CCCOC1(Cc2ccccc2)CC2CCC1(C)C2(C)C (racemic) [Example 6, (±)-2-benzyl-2-(3'-diethylaminopropoxy)-1,7,7-trimethyl-bicyclo(2,2,1)heptane]	100 mg/kg	20.0	–	–	2000 mg/kg	80 mg/kg	25.0	120 mg/kg	16.7	–	40.0	54 mg/kg	37.0	50 mg/kg	–
CN(C)CCCOC1(c2ccccc2)CC2CCC1(C)C2(C)C (racemic) [Example 14, (±)-2-(3'-dimethylaminopropoxy)-2-phenyl-1,7,7-trimethyl-bicyclo(2,2,1)heptane]	38 mg/kg	26.3	–	–	1000 mg/kg	64 mg/kg	15.6	–	–	–	20.0	–	–	50 mg/kg	–
COc1ccc(C2(OCCCN(C)C)CC3CCC2(C)C3(C)C)cc1 (racemic) [Example 22, (±)-2-(p-methoxyphenyl)-2-(3'-dimethylaminopropoxy)-1,7,7-trimethyl-bicyclo(2,2,1)heptane]	100 mg/kg	10.0	–	–	1000 mg/kg	80 mg/kg	12.5	–	–	–	13.8	96 mg/kg	10.4	72 mg/kg	–
OC(CCN1CCCCC1)(c1ccccc1)C1CCCCC1 (stereo not drawn) [Trihexyphenidyl, α-Cyclohexyl-α-phenyl-1-piperidine-propanol, reference compound]	–	–	40 mg/kg	9.13	–	–	–	–	–	–	–	–	–	–	–
CC(COC1(c2ccc(Cl)cc2)CC2CCC1(C)C2(C)C)CN(C)C (single isomer, unassigned; (+)) [Example 13, (+)-2-[(3'-dimethylamino-2'-methyl)-propoxy]-2-(p-chloro-phenyl)-1,7,7-trimethyl-bicyclo(2,2,1)heptane]	170 mg/kg	11.8	–	–	–	–	–	140 mg/kg	14.3	–	10.0	140 mg/kg	14.3	200 mg/kg	2000 mg/kg
CN(C)CCCOC1(Cc2ccccc2)CC2CCC1(C)C2(C)C (single isomer, unassigned) [Example 7, D-(-)-2-benzyl-2-(3'-dimethylaminopropoxy)-1,7,7-trimethyl-bicyclo(2,2,1)heptane]	90 mg/kg	13.3	25 mg/kg	48.0	1200 mg/kg	–	–	56 mg/kg	21.4	70 mg/kg	17.1	66 mg/kg	18.2	–	–
CCN(CC)CCOC1(c2cccs2)CC2CCC1(C)C2(C)C (racemic) [Example 17, (±)-2-(2'-diethylaminoethoxy)-2-(2"-thienyl)-1,7,7-trimethyl-bicyclo(2,2,1)heptane]	–	–	50 mg/kg	–	980 mg/kg	–	–	–	–	50 mg/kg	19.6	60 mg/kg	16.3	–	–
